Laboratory results: ChEMBL document CHEMBL3044744, “Antifeedant effects of marine halogenated monoterpenes” (J Agric Food Chem, 2002)
Values after ≈ are worked out from the molar mass of the structure shown. Active and inactive are the calls of the source. The rule behind the calls is not given here.

Experiments:
[1] = test system: Leptinotarsa decemlineata; assay: Antifeedant activity against adult of Leptinotarsa decemlineata in […] by choice test; type: functional, organism-based
Rhopalosiphum padi [2] = assay: Antifeedant activity against adult of Rhopalosiphum padi in Hordeum vulgare by choice test; type: functional, organism-based
Myzus persicae [3] = assay: Antifeedant activity against adult of Myzus persicae (green peach aphid) in Hordeum vulgare by choice test; type: functional, organism-based
[4] = Cytotoxicity against Cricetulus griseus CHO (Chinese hamster ovary) cells after 48 hr by MTT assay; type: cell-based; details: read-out: ED50
Spodoptera littoralis [5] = assay: Antifeedant activity against L6 larvae of Spodoptera littoralis in Solanum tuberosum by choice test; type: functional, organism-based
Spodoptera littoralis [6] = assay: Insecticidal activity against adult of Spodoptera littoralis in Solanum tuberosum at 50 ug/cm2 by choice test; type: functional, organism-based
[7] = Cytotoxicity against Spodoptera frugiperda (fall armyworm) Sf9 cells after 48 hr by MTT assay; type: cell-based; details: read-out: ED50
Rhopalosiphum padi [8] = assay: Insecticidal activity against adult of Rhopalosiphum padi in Hordeum vulgare assessed as mortality at 2 to 10 ug/cm2 by choice test; type: functional
[9] = test system: Leptinotarsa decemlineata; assay: Insecticidal activity against adult of Leptinotarsa decemlineata in […] at 2 ug/cm2 by choice test; type: functional, organism-based
[10] = test system: Leptinotarsa decemlineata; assay: Insecticidal activity against adult of Leptinotarsa decemlineata assessed as mortality at 10 ug/insect treated as hemolymph injection measured up to 3 days; type: functional
Myzus persicae [11] = assay: Insecticidal activity against adult of Myzus persicae (green peach aphid) in Hordeum vulgare at 50 ug/cm2 by choice test; type: functional
Myzus persicae [12] = assay: Antifeedant activity against adult of Myzus persicae (green peach aphid) in Hordeum vulgare assessed as total settling at 10 ug/cm2 by choice test; type: functional
Myzus persicae [13] = assay: Antifeedant activity against adult of Myzus persicae (green peach aphid) in Hordeum vulgare assessed as total settling at 50 ug/cm2 by choice test; type: functional
Rhopalosiphum padi [14] = assay: Antifeedant activity against adult of Rhopalosiphum padi in Hordeum vulgare assessed as total settling at 10 ug/cm2 by choice test; type: functional
Hordeum vulgare = assay: Phytotoxicity against Hordeum vulgare (barley) assessed as photosynthetic efficiency in leaf; type: organism-based; details: in vivo
Rhopalosiphum padi [15] = assay: Antifeedant activity against adult of Rhopalosiphum padi in Hordeum vulgare assessed as total settling at 50 ug/cm2 by choice test; type: functional
Rhopalosiphum padi [16] = assay: Antifeedant activity against adult of Rhopalosiphum padi in barley leaf assessed as ingestion time at 10 ug/cm2 after 2 hr by electronic recording; type: functional
Rhopalosiphum padi [17] = assay: Antifeedant activity against adult of Rhopalosiphum padi in barley leaf assessed as noningestion time at 2 ug/cm2 after 2 hr by electronic recording; type: functional
Rhopalosiphum padi [18] = assay: Antifeedant activity against adult of Rhopalosiphum padi in barley leaf assessed as salivation time at 1 ug/cm2 after 2 hr by electronic recording; type: functional
Rhopalosiphum padi [19] = assay: Antifeedant activity against adult of Rhopalosiphum padi in barley leaf assessed as noningestion time at 1 ug/cm2 after 2 hr by electronic recording; type: functional
Rhopalosiphum padi [20] = assay: Antifeedant activity against adult of Rhopalosiphum padi in barley leaf assessed as ingestion time at 2 ug/cm2 after 2 hr by electronic recording; type: functional
Rhopalosiphum padi [21] = assay: Antifeedant activity against adult of Rhopalosiphum padi in barley leaf assessed as salivation time at 2 ug/cm2 after 2 hr by electronic recording; type: functional
Rhopalosiphum padi [22] = assay: Antifeedant activity against adult of Rhopalosiphum padi in barley leaf assessed as ingestion time at 1 ug/cm2 after 2 hr by electronic recording; type: functional
Rhopalosiphum padi [23] = assay: Antifeedant activity against adult of Rhopalosiphum padi in barley leaf assessed as salivation time at 10 ug/cm2 after 2 hr by electronic recording; type: functional
Rhopalosiphum padi [24] = assay: Antifeedant activity against adult of Rhopalosiphum padi in barley leaf assessed as noningestion time at 10 ug/cm2 after 2 hr by electronic recording; type: functional

SMILES	EC50 [1]	EC50 (Rhopalosiphum padi [2])	EC50 (Myzus persicae [3])	Activity (Spodoptera littoralis [5])	Activity (Hordeum vulgare)	other results
Cc1ccc(C(C)C)c(O)c1 [THYMOL]	3.6 nmol/cm2	23.7 nmol/cm2	30.9 nmol/cm2	–	–	–
Cl[C@H]1[C@H](Cl)[C@@H](Cl)[C@@H](Cl)[C@H](Cl)[C@H]1Cl [LINDANE]	0.1 nmol/cm2	–	–	–	–	CC50 at 48 h [4]: > 100 µg/mL; EC50 (Spodoptera littoralis [5]): 16.8 nmol/cm2; Activity (Spodoptera littoralis [6]): Active; CC50 at 48 h [7]: 0.001 µg/mL (≈ 0.00344 µM); mortality (Rhopalosiphum padi [8]): >50%; Activity [9]: Active; mortality [10]: 100%; mortality at 50 µg/cm2 (Myzus persicae [11]): 100%
CC(Br)(CCl)[C@@H]1C[C@H](O)[C@](C)(/C(Cl)=C/Br)O1 (some centres undefined) [FUROPLOCAMIOID C]	19.1 nmol/cm2	1.6 nmol/cm2	3.7 nmol/cm2	inactive	Non-toxic	CC50 at 48 h [4]: 8.09 µg/mL (≈ 20.4 µM); Activity (Myzus persicae [12]): 17%; Activity (Myzus persicae [13]): <50%; CC50 at 48 h [7]: 0.03 µg/mL (≈ 0.0756 µM); Activity (Rhopalosiphum padi [14]): 17%; Activity (Rhopalosiphum padi [15]): 50%
C[C@@]1(Cl)C[C@@](C)(/C=C/Cl)[C@H](Cl)C[C@H]1Cl	13 nmol/cm2	15.9 nmol/cm2	1 nmol/cm2	inactive	Non-toxic	–
CC1=C[C@](C)(/C=C/Cl)C=CC1=O	21.2 nmol/cm2	200 nmol/cm2	200 nmol/cm2	inactive	Non-toxic	–
CC1=CCC(C(C)(Cl)CCl)OC1C(Br)Br (centres undefined)	8.3 nmol/cm2	> 100 nmol/cm2	> 100 nmol/cm2	inactive	Non-toxic	–
CC(C)=CCC/C(C)=C/CC/C(C)=C/CO [FARNESOL]	107.3 nmol/cm2	7.9 nmol/cm2	67.1 nmol/cm2	–	–	–
CC1=CCC(C(C)(C)Cl)OC1C(Br)Br (centres undefined) [PANTONEURINE AB]	2.4 nmol/cm2	> 100 nmol/cm2	100 nmol/cm2	inactive	Non-toxic	–
C[C@]1(/C=C/Cl)C[C@@](C)(Cl)[C@H](Cl)C[C@@H]1Cl [MERTENSENE]	150 nmol/cm2	16.6 nmol/cm2	150 nmol/cm2	inactive	Non-toxic	Time (Rhopalosiphum padi [16]): 0 min; Time (Rhopalosiphum padi [17]): 15 min; Time (Rhopalosiphum padi [18]): 40 min; Time (Rhopalosiphum padi [19]): 17 min; Time (Rhopalosiphum padi [20]): 1 min; Time (Rhopalosiphum padi [21]): 48 min; Time (Rhopalosiphum padi [22]): 3 min; Time (Rhopalosiphum padi [23]): 45 min; Time (Rhopalosiphum padi [24]): 15 min
CC(=O)O[C@H]1C[C@@H](C(C)(Br)CCl)O[C@@]1(C)/C(Cl)=C/Br (some centres undefined)	–	> 100 nmol/cm2	–	inactive	Non-toxic	–
C[C@]1(/C=C/Cl)C[C@](Cl)(CBr)[C@@H](Br)C[C@H]1Cl	39.3 nmol/cm2	1.2 nmol/cm2	1 nmol/cm2	inactive	Non-toxic	Time (Rhopalosiphum padi [16]): 0 min; Time (Rhopalosiphum padi [17]): 60 min; Time (Rhopalosiphum padi [18]): 12 min; Time (Rhopalosiphum padi [19]): 48 min; Time (Rhopalosiphum padi [20]): 0 min; Time (Rhopalosiphum padi [21]): 0 min; Time (Rhopalosiphum padi [22]): 0.1 min; Time (Rhopalosiphum padi [23]): 0 min; Time (Rhopalosiphum padi [24]): 60 min
C[C@]1(/C=C/Cl)C[C@](Cl)(CBr)[C@@H](Cl)C[C@H]1Cl [VIOLACENE]	140 nmol/cm2	2.5 nmol/cm2	5.1 nmol/cm2	inactive	Non-toxic	CC50 at 48 h [4]: 29.8 µg/mL (≈ 84.1 µM); Time (Rhopalosiphum padi [16]): 0 min; Time (Rhopalosiphum padi [17]): 59.5 min; Activity (Myzus persicae [12]): 17%; Activity (Myzus persicae [13]): <50%; Time (Rhopalosiphum padi [18]): 8 min; Time (Rhopalosiphum padi [19]): 51.8 min; CC50 at 48 h [7]: 0.023 µg/mL (≈ 0.0648 µM); Time (Rhopalosiphum padi [20]): 0 min; Activity (Rhopalosiphum padi [14]): 17%; Time (Rhopalosiphum padi [21]): 0.5 min; Time (Rhopalosiphum padi [22]): 0.2 min; Time (Rhopalosiphum padi [23]): 0 min; Activity (Rhopalosiphum padi [15]): 50%; Time (Rhopalosiphum padi [24]): 60 min; mortality [10]: 80%
CC(=O)O[C@H]1C[C@H](C(C)(Br)CCl)O[C@@]1(C)/C(Cl)=C/Br (some centres undefined)	17.1 nmol/cm2	> 100 nmol/cm2	50 nmol/cm2	inactive	Non-toxic	–
C=C(C)[C@@H]1[C@H]2OC(=O)[C@@H]1[C@]1(O)C[C@H]3O[C@]34C(=O)O[C@H]2[C@]14C [PICROTOXININ]	27.5 nmol/cm2	> 100 nmol/cm2	> 100 nmol/cm2	–	–	–
CC(Br)(CCl)[C@H]1C[C@H](O)[C@](C)(/C(Cl)=C/Br)O1 (some centres undefined) [FUROPLOCAMIOID A]	18.9 nmol/cm2	> 100 nmol/cm2	–	inactive	Non-toxic	–
CC(=C/C[C@@H](O)[C@](C)(Br)CCl)/C(Cl)=C/Br [PREFUROPLOCAMIOID]	> 100 nmol/cm2	38.9 nmol/cm2	25.3 nmol/cm2	inactive	Non-toxic	–
C[C@]1(/C=C/Cl)C[C@@](C)(Cl)[C@H](Cl)C[C@H]1Cl	30.1 nmol/cm2	63 nmol/cm2	> 100 nmol/cm2	inactive	Non-toxic	–
CC(=O)OC(C/C=C(/C)C(Cl)C(Br)Br)C(C)(Br)CCl (centres undefined)	70 nmol/cm2	70 nmol/cm2	–	inactive	Non-toxic	–
C=C1C[C@](C)(/C=C/Cl)[C@H](Cl)C[C@H]1Cl	12.9 nmol/cm2	44.2 nmol/cm2	7.1 nmol/cm2	inactive	Non-toxic	–
